Assay results: patent US20240302368A1, “MIGRATION OF HUMAN PERIPHERAL LEUKOCYTES IN RESPONSE TO CHEMOTACTIC FACTORS DURING PREGNACY” (The Governors of the University of Alberta, priority 2021, published 2024)

Key:
[1] = molecular target: T1, CCR1 (Homo sapiens, UniProt P32246); experiment: Term leukocyte chemotaxis towards TL homogenized extracts (LMA), CCR1 inhibition; format: cell-based; details: increasing concentrations, FIG. 18
T1 construct: Whole blood is collected from a pregnant person into an EDTA-coated collection tube; endogenous in cells; host or cells: total peripheral leukocytes from pregnant women in term labour
T1 sequence (P32246 1-355): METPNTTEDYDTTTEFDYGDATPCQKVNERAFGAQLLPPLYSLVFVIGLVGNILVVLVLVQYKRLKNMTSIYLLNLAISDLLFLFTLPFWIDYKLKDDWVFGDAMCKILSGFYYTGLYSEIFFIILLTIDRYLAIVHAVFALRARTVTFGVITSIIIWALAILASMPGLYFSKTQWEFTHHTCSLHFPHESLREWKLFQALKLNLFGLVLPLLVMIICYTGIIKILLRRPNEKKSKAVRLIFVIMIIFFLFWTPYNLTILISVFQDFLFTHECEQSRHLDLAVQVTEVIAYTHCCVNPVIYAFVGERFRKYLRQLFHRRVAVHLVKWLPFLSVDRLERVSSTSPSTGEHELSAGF
Protocol: (§1) Chemotaxis Assay: Chemoattractants (50 μL) are loaded into the lower wels of a simple, resin 3D printed, 3-well chemotaxis chamber and a polycarbonate filter with 3 μm pores (Neuro Probe Inc., MD, USA) is placed on top of the wells. A silicone gasket with holes for each well is positioned on top of the filter and the upper chamber is lowered onto the silicone gasket, creating a tight seal. Total leukocytes (100 μL) are loaded into the wells of the upper chamber and the apparatus is incubated at 90 min at 37 C in 5% CO2. The apparatus is then disassembled and leukocytes that have migrated through the filter into the lower chamber are quantified using a hemocytometer, flow cytometry or fluorescence spectrometry.
(§2) We will use SB 225002 (CXCR2 antagonist) and J 113863 (CCR1 antagonist), which are commercially available from RND Systems for around USD 200 each. A time course and kinetics experiment will be performed for each antagonist to optimize incubation length and concentration. TL leukocytes (n=6) will be inhibited with each antagonist using these optimized parameters, and the resulting number of leukocytes that undergo chemotaxis to TL chemoattractant in our LMA will be compared to control (i.e. non-treated leukocytes).

[2] = molecular target: T2, CXCR2 (Homo sapiens, UniProt P25025); experiment: Term leukocyte chemotaxis towards TL homogenized extracts (LMA), CXCR2 inhibition; format: cell-based; details: increasing concentrations, FIG. 18
T2 construct: Whole blood is collected from a pregnant person into an EDTA-coated collection tube; endogenous in cells; host or cells: total peripheral leukocytes from pregnant women in term labour
T2 sequence (P25025 1-360): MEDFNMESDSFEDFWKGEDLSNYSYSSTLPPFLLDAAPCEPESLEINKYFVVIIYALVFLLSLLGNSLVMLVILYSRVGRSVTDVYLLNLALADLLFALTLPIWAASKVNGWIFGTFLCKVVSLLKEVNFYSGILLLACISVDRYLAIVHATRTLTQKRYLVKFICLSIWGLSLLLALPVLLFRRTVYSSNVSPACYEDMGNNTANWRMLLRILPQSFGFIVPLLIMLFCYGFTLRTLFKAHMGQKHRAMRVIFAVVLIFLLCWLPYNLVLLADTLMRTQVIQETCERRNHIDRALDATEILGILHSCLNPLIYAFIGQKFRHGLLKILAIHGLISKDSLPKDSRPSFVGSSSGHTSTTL
Protocol: as §1, §2

Row | term leukocyte migration [1] | Compound | term leukocyte migration [2]
1 | decrease leukocyte migration | CC[N+]1(C/C2=C/CCCCCC2)CCC(NC(=O)C2c3cc(Cl)ccc3Oc3ccc(Cl)cc32)CC1.[I-] (centres unmarked) [J113863] | 
2 |  | O=C(Nc1ccc([N+](=O)[O-])cc1O)Nc1ccccc1Br [SB225002] | decrease leukocyte migration
